Experimental data published in patent publication US20050032873A1, “3-Amino chroman and 2-amino tetralin derivatives” (Wyeth, priority 2003, published 2005).
Where two headings read alike, the source gives them in different places.

How the values were obtained:
[1] = molecular target: T1, cloned human 5-HT1A receptors (Homo sapiens, UniProt P08908); experiment: 35S-GTPγS binding assay, 5-HT1A function; format: biochemical; conditions: for IC50: antagonist potency, reversal of 8-OH-DPAT, read-out: 5-HT1A Function GTPγS IC50; for EC50: agonist potency
T1 construct: expressed in transfected cells
T1 sequence (P08908 1-422): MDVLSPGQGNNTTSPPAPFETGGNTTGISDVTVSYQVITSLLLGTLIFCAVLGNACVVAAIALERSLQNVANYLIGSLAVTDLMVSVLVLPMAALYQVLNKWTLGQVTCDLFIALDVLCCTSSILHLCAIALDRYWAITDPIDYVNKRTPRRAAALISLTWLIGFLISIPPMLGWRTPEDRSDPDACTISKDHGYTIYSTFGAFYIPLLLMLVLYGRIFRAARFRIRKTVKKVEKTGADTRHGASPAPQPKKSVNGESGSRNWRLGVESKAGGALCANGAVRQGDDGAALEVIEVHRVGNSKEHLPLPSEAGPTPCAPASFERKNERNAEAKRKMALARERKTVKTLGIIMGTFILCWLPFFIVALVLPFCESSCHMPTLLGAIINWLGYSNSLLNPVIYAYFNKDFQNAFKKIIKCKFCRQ

serotonin transporter = molecular target: T2, serotonin transporter (Rattus norvegicus, UniProt P31652); experiment: 5-HT transporter affinity: displacement of 3H-paroxetine from male rat cortical membranes; format: binding; conditions: displacement of 3H-paroxetine; male rat cortical membranes; read-out: 5-HT Transporter Affinity Ki
T2 construct: displace ^3H-paroxetine from male rat cortical membranes; from tissue; host or cells: male rat cortical membranes

5-HT1A receptor [2] = molecular target: T3, 5-HT1A receptor (Homo sapiens, UniProt P08908); experiment: cAMP accumulation assay, 5-HT1A function; format: cell-based; conditions: for IC50: cells marked IC50 (antagonist), read-out: 5-HT1A Function cAMP IC50; for Emax: in brackets after EC50 or IC50, read-out: 5-HT1A Function cAMP (Emax); for EC50: cells marked EC50 (agonist)
T3 sequence (P08908 1-422): T1 sequence (P08908 1-422)

5-HT1A receptor [3] = molecular target: T3, 5-HT1A receptor; experiment: 5-HT1A receptor affinity: displacement of [3H] 8-OH-DPAT; format: binding; design: expressed in transfected cells; conditions: displacement of [3H] 8-OH-DPAT; CHO cells stably transfected with human 5-HT1A receptors; read-out: 5-HT1A Receptor Affinity Ki
[4] = maximum inhibitory effect, in brackets after IC50, read-out: 5-HT1A Function GTPγS (Imax)
[5] = maximum stimulatory effect, in brackets after EC50, read-out: 5-HT1A Function GTPγS (Emax)

T2 sequence (P31652 whole entry): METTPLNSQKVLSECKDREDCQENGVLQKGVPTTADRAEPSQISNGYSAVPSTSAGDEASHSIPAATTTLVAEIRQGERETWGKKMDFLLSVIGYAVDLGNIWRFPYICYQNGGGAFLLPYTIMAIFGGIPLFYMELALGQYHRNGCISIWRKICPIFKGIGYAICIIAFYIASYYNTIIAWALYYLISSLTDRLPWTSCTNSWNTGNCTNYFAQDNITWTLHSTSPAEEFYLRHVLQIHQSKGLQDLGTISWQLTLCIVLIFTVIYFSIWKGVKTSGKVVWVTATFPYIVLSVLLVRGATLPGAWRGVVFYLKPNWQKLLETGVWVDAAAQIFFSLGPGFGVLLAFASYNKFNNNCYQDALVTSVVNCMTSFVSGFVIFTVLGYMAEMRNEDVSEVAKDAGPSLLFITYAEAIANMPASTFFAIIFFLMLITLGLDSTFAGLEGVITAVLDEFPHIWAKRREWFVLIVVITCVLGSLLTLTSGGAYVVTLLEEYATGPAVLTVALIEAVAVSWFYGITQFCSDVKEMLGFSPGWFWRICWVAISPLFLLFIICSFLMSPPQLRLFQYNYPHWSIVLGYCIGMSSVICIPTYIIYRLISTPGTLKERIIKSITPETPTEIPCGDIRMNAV

| SMILES | IC50 [1] | Emax [1, 4] | Ki (serotonin transporter) | IC50 (5-HT1A receptor [2]) | Emax (5-HT1A receptor [2]) | Ki (5-HT1A receptor [3]) | 5-HT1A Function GTPγS (Imax) ([1]; maximum inhibitory effect, in brackets after IC50) | EC50 [1] | Emax [1, 5] | EC50 (5-HT1A receptor [2]) |
| --- | --- | --- | --- | --- | --- | --- | --- | --- | --- | --- |
| NC(=O)c1ccc(F)c2c1C[C@@H](N(CC1CC1)CC1CCc3[nH]c4ccc(F)cc4c3C1)CO2 (single isomer, unassigned; (-)) [Compound 178a] | 8400 nM | 100% | 347 nM | 1260 nM | 0% | 117 nM | – | – | – | – |
| NC(=O)c1ccc(F)c2c1C[C@@H](NCC1CCc3c([nH]c4ccc(F)cc34)C1)CO2 (single isomer, unassigned; (-)) [Compound 179b] | 6040 nM | – | 85.5 nM | 956 nM | 0% | 24.2 nM | 100% | – | – | – |
| NC(=O)c1ccc(F)c2c1CC(NCCCc1c[nH]c3ccc(F)cc13)CO2 (centres unmarked) [Compound 1, 8-fluoro-3-{[3-(5-fluoro-1H-indol-3-yl)propyl]amino}chromane-5-carboxamide] | – | – | 7 nM | – | 79.5% | 212 nM | – | 5000 nM | 100% | 229 nM |
| CCCN(CCCc1c[nH]c2ccc(F)cc12)C1COc2c(F)ccc(C(N)=O)c2C1 (centres unmarked) [Compound 2, 8-fluoro-3-{[3-(5-fluoro-1H-indol-3-yl)propyl](propyl)amino}chromane-5-carboxamide] | – | – | 6 nM | – | 83.5% | 2.94 nM | – | 168 nM | 77% | 10.4 nM |
| NC(=O)c1ccc(Cl)c2c1CC(N(CCCc1c[nH]c3ccc(F)cc13)C1CCC1)CO2 (centres unmarked) [Compound 7, 8-chloro-3-{cyclobutyl[3-(5-fluoro-1H-indol-3-yl)propyl]amino}chromane-5-carboxamide] | 1650 nM | 100% | 3.2 nM | 59.7 nM | 0% | 6.21 nM | – | – | – | – |
| NC(=O)c1ccc(F)c2c1CC(N(CCC(=O)c1c[nH]c3ccc(F)cc13)C1CCC1)CO2 (centres unmarked) [Compound 8, 3-{cyclobutyl[3-(5-fluoro-1H-indol-3-yl)-3-oxopropyl]amino}-8-fluorochromane-5-carboxamide] | 1380 nM | 100% | 259 nM | 478 nM | 0% | 103 nM | – | – | – | – |
| COC(=O)c1ccc(F)c2c1CC(NCCCc1c[nH]c3ccc(F)cc13)CO2 (centres unmarked) [Compound 10, Methyl 8-fluoro-3-{[3-(5-fluoro-1H-indol-3-yl)propyl]amino}chromane-5-carboxylate] | – | – | 10.9 nM | – | 70.5% | 6.25 nM | – | 30.5 nM | 85% | 16.3 nM |
| COC(=O)c1ccc(F)c2c1CC(N(CCCc1c[nH]c3ccc(F)cc13)C1CCC1)CO2 (centres unmarked) [Compound 11, Methyl 3-{cyclobutyl[3-(5-fluoro-1H-indol-3-yl)propyl]amino}-8-fluorochromane-5-carboxylate] | 345 nM | 62% | 161 nM | 403 nM | 0% | 73.8 nM | – | – | – | – |
| CCCN(CCC(O)c1csc2ccc(F)cc12)C1COc2c(F)ccc(C(N)=O)c2C1 (centres unmarked) [Compound 17, 8-fluoro-3-[[3-(5-fluoro-1-benzothien-3-yl)-3-hydroxypropyl](propyl)amino]chromane-5-carboxamide] | – | – | 159 nM | – | 74.5% | 0.88 nM | – | 93.3 nM | 42% | 76.2 nM |
| CCN(CCCc1csc2ccccc12)C1COc2cccc(OC)c2C1 (centres unmarked) [Compound 18, N-[3-(1-benzothien-3-yl)propyl]-N-ethyl-5-methoxychroman-3-amine] | – | – | 127 nM | – | 93.5% | 3.72 nM | – | 232 nM | 100% | 11 nM |
| CCCN(CCCc1csc2ccc(F)cc12)C1COc2cccc(OC)c2C1 (centres unmarked) [Compound 19, N-[3-(5-fluoro-1-benzothien-3-yl)propyl]-5-methoxy-N-propylchroman-3-amine] | – | – | 405 nM | – | 86.5% | 16 nM | – | 317 nM | 100% | 81 nM |
| CCCN(CCCc1coc2ccccc12)C1COc2c(F)ccc(C(N)=O)c2C1 (centres unmarked) [Compound 20, 3-[[3-(1-benzofuran-3-yl)propyl](propyl)amino]-8-fluorochromane-5-carboxamide] | – | – | 575 nM | – | 88% | 0.37 nM | – | 35.7 nM | 84% | 62.2 nM |
| CCN(CCCc1coc2ccccc12)C1COc2cccc(OC)c2C1 (centres unmarked) [Compound 21, N-[3-(1-benzofuran-3-yl)propyl]-N-ethyl-5-methoxychroman-3-amine] | – | – | 311 nM | – | 90.5% | 0.38 nM | – | 28.1 nM | 98.5% | 9.51 nM |
| CCN(CCCCc1coc2ccccc12)C1COc2cccc(OC)c2C1 (centres unmarked) [Compound 22, N-[4-(1-benzofuran-3-yl)butyl]-N-ethyl-N-(5-methoxy-3,4-dihydro-2H-chromen-3-yl)amine] | 1180 nM | 31% | 35.7 nM | – | 100% | 4.77 nM | – | 224 nM | 82% | 31 nM |
| CCCN(CCCc1c[nH]c2ccc(F)cc12)C1COc2cccc(OC)c2C1 (centres unmarked) [Compound 23, [3-(5-fluoro-1H-indol-3-yl)propyl]-N-(5-methoxy-chroman-3-yl)propylamine] | – | – | 9 nM | – | 80.5% | 15.9 nM | – | 99.5 nM | 100% | 39.3 nM |
| CCCN(CCCc1c[nH]c2ccc(F)cc12)[C@@H]1COc2c(F)ccc(OC)c2C1 [Compound 27, (3S)-8-fluoro-N-[3-(5-fluoro-1H-indol-3-yl)propyl]-5-methoxy-N-propylchroman-3-amine] | – | – | 13.5 nM | – | 88.5% | 12.6 nM | – | 116 nM | 97% | 16.4 nM |
| CCCN(CCCc1c[nH]c2ccc(F)cc12)[C@H]1COc2c(F)ccc(OC)c2C1 [Compound 28, (3R)-8-fluoro-N-[3-(5-fluoro-1H-indol-3-yl)propyl]-5-methoxy-N-propylchroman-3-amine] | – | – | 17.5 nM | – | 86% | 11 nM | – | 166 nM | 88% | 36.5 nM |
| CCCN(CCc1c[nH]c2ccc(F)cc12)C1COc2cccc(OC)c2C1 (centres unmarked) [Compound 29, N-[2-(5-fluoro-1H-indol-3-yl)ethyl]-5-methoxy-N-propylchroman-3-amine] | – | – | 27 nM | – | 99% | 7.32 nM | – | 205 nM | 70% | 77.1 nM |
| CCCN(CCCCc1c[nH]c2ccc(F)cc12)C1COc2cccc(OC)c2C1 (centres unmarked) [Compound 30, N-[4-(5-fluoro-1H-indol-3-yl)butyl]-5-methoxy-N-propylchroman-3-amine] | – | – | 12.6 nM | – | 94% | 3.62 nM | – | 94.6 nM | 83% | 27.7 nM |
| CCN(CCCc1c[nH]c2ccc(F)cc12)C1COc2cccc(OC)c2C1 (centres unmarked) [Compound 31, N-ethyl-N-[3-(5-fluoro-1H-indol-3-yl)propyl]-5-methoxychroman-3-amine] | – | – | 2.2 nM | – | 96% | 2.33 nM | – | 53.5 nM | 99% | 26.3 nM |
| CCN(CCCCc1c[nH]c2ccc(F)cc12)C1COc2cccc(OC)c2C1 (centres unmarked) [Compound 32, N-ethyl-N-[4-(5-fluoro-1H-indol-3-yl)butyl]-5-methoxychroman-3-amine] | – | – | 1.1 nM | – | 95% | 2.78 nM | – | 123 nM | 100% | 85.4 nM |
| COc1cccc2c1CC(N(C)CCCc1c[nH]c3ccc(F)cc13)CO2 (centres unmarked) [Compound 33, N-[3-(5-fluoro-1H-indol-3-yl)propyl]-5-methoxy-N-methylchroman-3-amine] | – | – | 6.8 nM | – | 91% | 40 nM | – | 3.62 nM | 69% | 95.2 nM |
| COc1cccc2c1CC(N(CCCc1c[nH]c3ccc(F)cc13)C1CCC1)CO2 (centres unmarked) [Compound 34, N-cyclobutyl-N-[3-(5-fluoro-1H-indol-3-yl)propyl]-5-methoxychroman-3-amine] | 2130 nM | 76% | 13 nM | – | 37% | 15.6 nM | – | – | – | 61.9 nM |
| COc1cccc2c1C[C@@H](N(CCCc1c[nH]c3ccc(F)cc13)C1CCC1)CO2 [Compound 35, (3R)-N-cyclobutyl-N-[3-(5-fluoro-1H-indol-3-yl)propyl]-5-methoxy-3,4-dihydro-2H-chromen-3-amine] | 489 nM | 80% | 41 nM | 23.4 nM | 0% | 2.14 nM | – | – | – | – |
